Values joined by “and” are separate entries in the source; they are usually repeats but may differ in a detail not shown here. Equal values may be shown once.
Tests used:
Assay in all cases: NCI one-dose screen
Format in all cases: cell-based, human
HOP-62 = conditions: NSCLC HOP-62, 10 µM single dose
In short: (§1)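 At 10 μM, a single concentration, compounds were evaluated for antiproliferative effect in the NCI 60-line screen, with growth expressed relative to untreated control cells.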

MDA-MB-468 = conditions: Breast MDA-MB-468, 10 µM single dose
In short: (§2)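 One concentration (10 μM) applied to each line of the full NCI-60 panel; percent growth compared against untreated cells.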

COLO 205 = conditions: Colon COLO 205, 10 µM single dose
In short: as §1

U251 = conditions: CNS U251, 10 µM single dose
In short: as §2

SK-MEL-28 = conditions: Melanoma SK-MEL-28, 10 µM single dose
In short: as §1

CCRF-CEM = conditions: Leukemia CCRF-CEM, 10 µM single dose
In short: as §1

OVCAR-8 = conditions: Ovarian OVCAR-8, 10 µM single dose
In short: as §1

HCC-2998 = conditions: Colon HCC-2998, 10 µM single dose
In short: as §1

ACHN = conditions: Renal ACHN, 10 µM single dose
In short: as §1

PC-3 = conditions: Prostate PC-3, 10 µM single dose
In short: as §1

HCT-15 = conditions: Colon HCT-15, 10 µM single dose
In short: as §1

K-562 = conditions: Leukemia K-562, 10 µM single dose
In short: as §1

HOP-92 = conditions: NSCLC HOP-92, 10 µM single dose
In short: as §1

SNB-75 = conditions: CNS SNB-75, 10 µM single dose
In short: as §2

IGROV1 = conditions: Ovarian IGROV1, 10 µM single dose
In short: as §1

BT-549 = conditions: Breast BT-549, 10 µM single dose
In short: as §1

NCI-H226 = conditions: NSCLC NCI-H226, 10 µM single dose
In short: as §2

OVCAR-4 = conditions: Ovarian OVCAR-4, 10 µM single dose
In short: as §1

SW-620 = conditions: Colon SW-620, 10 µM single dose
In short: as §1

MDA-MB-231/ATCC = conditions: Breast MDA-MB-231/ATCC, 10 µM single dose
In short: as §1

MCF7 = conditions: Breast MCF7, 10 µM single dose
In short: as §2

SF-268 = conditions: CNS SF-268, 10 µM single dose
In short: as §2

OVCAR-3 = conditions: Ovarian OVCAR-3, 10 µM single dose
In short: as §1

TK-10 = conditions: Renal TK-10, 10 µM single dose
In short: as §1

MALME-3M = conditions: Melanoma MALME-3M, 10 µM single dose
In short: as §1

SN12C = conditions: Renal SN12C, 10 µM single dose
In short: as §1

786-0 = conditions: Renal 786-0, 10 µM single dose
In short: as §1

EKVX = conditions: NSCLC EKVX, 10 µM single dose
In short: as §2

NCI-H23 = conditions: NSCLC NCI-H23, 10 µM single dose
In short: as §2

DU-145 = conditions: Prostate DU-145, 10 µM single dose
In short: as §1

SK-MEL-5 = conditions: Melanoma SK-MEL-5, 10 µM single dose
In short: as §1

OVCAR-5 = conditions: Ovarian OVCAR-5, 10 µM single dose
In short: as §1

NCI-H522 = conditions: NSCLC NCI-H522, 10 µM single dose
In short: as §2

LOX IMVI = conditions: Melanoma LOX IMVI, 10 µM single dose
In short: as §1

RXF 393 = conditions: Renal RXF 393, 10 µM single dose
In short: as §1

Compound	Growth Percent (HOP-62)	Growth Percent (MDA-MB-468)	Growth Percent (COLO 205)	Growth Percent (U251)	Growth Percent (SK-MEL-28)	Growth Percent (CCRF-CEM)	Growth Percent (OVCAR-8)	Growth Percent (HCC-2998)	Growth Percent (ACHN)	Growth Percent (PC-3)	Growth Percent (HCT-15)	Growth Percent (K-562)	Growth Percent (HOP-92)	Growth Percent (SNB-75)	Growth Percent (IGROV1)	Growth Percent (BT-549)	Growth Percent (NCI-H226)	Growth Percent (OVCAR-4)	Growth Percent (SW-620)	Growth Percent (MDA-MB-231/ATCC)	also measured
Cc1c(C(=O)NCCCC(=O)NO)sc2ncnc(Nc3ccccc3)c12 [Compound 20b, N-(4-(hydroxyamino)-4-oxobutyl)-5-methyl-4-(phenylamino)thieno[2,3-d]pyrimidine-6-carboxamide]	100.8% and 100.81%	98.0% and 98.03%	106.5% and 106.57%	98.2% and 98.23%	115.5% and 115.55%	102.7% and 102.73%	98.7%	104.7% and 104.78%	103.8% and 103.87%	108%	100.2% and 100.23%	104.9% and 104.96%	110.5% and 110.53%	95.6%	107.3% and 107.35%	128.8% and 128.88%	97.5% and 97.52%	105.4% and 105.47%	102.0% and 102.07%	110.9% and 110.91%	Growth Percent (MCF7): 92.1% and 92.13%; Growth Percent (SF-268): 97.1% and 97.16%; Growth Percent (OVCAR-3): 109.4% and 109.49%; Growth Percent (TK-10): 111.2% and 111.26%; Growth Percent (MALME-3M): 111.9% and 111.93%; Growth Percent (SN12C): 100.3% and 100.34%; Growth Percent (786-0): 113.5% and 113.55%; Growth Percent (EKVX): 89.6% and 89.65%; Growth Percent (NCI-H23): 99.6% and 99.63%; Growth Percent (DU-145): 111% and 111.21%; Growth Percent (SK-MEL-5): 97.6% and 97.62%; Growth Percent (OVCAR-5): 100.2% and 100.23%; Growth Percent (NCI-H522): 89.7% and 89.77%; Growth Percent (LOX IMVI): 96.5% and 96.54%; Growth Percent (RXF 393): 98.6% and 98.66%
Cc1c(C(=O)NCCCC(=O)NO)sc2ncnc(Nc3ccc(Cl)cc3)c12 [Compound 20c, 4–(4-chlorophenylamino)-N-(4-(hydroxyamino)-4-oxobutyl)-5-methylthieno[2,3-d]pyrimidine-6-carboxamide]	102.5% and 102.52%	110.9% and 110.91%	117.8% and 117.81%	103.1% and 103.12%	112.3% and 112.39%	108.0% and 108.09%	105.5%	102.4% and 102.48%	105.1% and 105.18%	101.4% and 101.49%	99.0% and 99.06%	108.0%	111.8% and 111.83%	79.1% and 79.17%	81.1% and 81.14%	116.5%	92.0% and 92.02%	109.4%	102.3% and 102.37%	95.4% and 95.46%	Growth Percent (MCF7): 91.4% and 91.44%; Growth Percent (SF-268): 97.2% and 97.29%; Growth Percent (OVCAR-3): 106.5% and 106.57%; Growth Percent (TK-10): 152.2% and 152.23%; Growth Percent (MALME-3M): 112.5% and 112.53%; Growth Percent (SN12C): 100.0% and 100.04%; Growth Percent (786-0): 83.0% and 83.06%; Growth Percent (EKVX): 90.5% and 90.52%; Growth Percent (NCI-H23): 94.9% and 94.98%; Growth Percent (DU-145): 116.8% and 116.86%; Growth Percent (SK-MEL-5): 100.0%; Growth Percent (OVCAR-5): 109.8% and 109.86%; Growth Percent (NCI-H522): 91.2% and 91.22%; Growth Percent (LOX IMVI): 99.2% and 99.24%; Growth Percent (RXF 393): 109.5% and 109.55%
COc1cccc(NC(=O)Nc2ccc(Nc3ncnc4sc(C(=O)NO)c(C)c34)cc2)c1 [Compound 7b, 1–(4-(6-(hydroxycarbamoyl)-5-methylthieno[2,3-d]pyrimidin-4-ylamino)phenyl)-3–(3-methoxyphenyl)urea]	101.6% and 101.62%	98.8% and 98.87%	114.4% and 114.44%	101.4% and 101.41%	111.1% and 111.16%	101.2% and 101.22%	96.6% and 96.69%	103.6% and 103.61%	103.7% and 103.71%	101.6% and 101.65%	99.0% and 99.07%	108.5% and 108.57%	108.4% and 108.42%	92.7% and 92.76%	106.5% and 106.51%	99.5% and 99.56%	94.5% and 94.51%	101.8% and 101.82%	101.2% and 101.24%	99.5% and 99.59%	Growth Percent (MCF7): 95.2% and 95.27%; Growth Percent (SF-268): 93.3% and 93.33%; Growth Percent (OVCAR-3): 106.5% and 106.55%; Growth Percent (TK-10): 103.9% and 103.96%; Growth Percent (MALME-3M): 101.9% and 101.92%; Growth Percent (SN12C): 99.1% and 99.12%; Growth Percent (786-0): 100.6% and 100.62%; Growth Percent (EKVX): 92.8% and 92.81%; Growth Percent (NCI-H23): 98.8% and 98.89%; Growth Percent (DU-145): 103.1% and 103.17%; Growth Percent (SK-MEL-5): 99.5%; Growth Percent (OVCAR-5): 102.8% and 102.86%; Growth Percent (NCI-H522): 90.2% and 90.28%; Growth Percent (LOX IMVI): 94.1% and 94.14%; Growth Percent (RXF 393): 104.4%
